Assay results as given in patent publication US8445207B2, “Genes based on thalidomide, valproic acid and methotrexate treatment for screening of drug inducing teratogenicity and screening method using thereof” (priority 2009, dated 2013).

Legend:
[1] = tested on: JEG-3 (human placental choriocarcinoma cell line); assay: Oligo microarray gene expression in drug-treated JEG-3 (Cy5 treated / Cy3 control); assay type: cell-based
Protocol: Thalidomide, valproic acid, and methotrexate were treated to human placental choriocarcinoma cell line at the concentrations determined above (Inhibition concentration: the concentration that can kill approximately 30% of the total cells, that is the concentration of 70% viability, IC30). mRNA was extracted from the drug treated cell line, followed by synthesis of cDNA which was labeled with Cy5. The non-treated control was labeled with Cy3. The fluorescence labeled cDNA was hybridized with 41K (thalidomide), 44K (valproic acid, methotrexate) human whole genome oligomicroarray chips (Agilent, USA), followed by fluorescent image scanning to analyze gene expression patterns (see FIG. 4). Volcano Plot of each substance was also attached. Y axis indicates probability (generally converted by −log 10). X axis indicates differential expression, which is presented by log-ratio.
Total RNA was separated from the treated cell by using trizol reagent (Invitrogen Life Technologies, USA) according to the manufacture's instructions, followed by purification using RNeasy mini kit (Qiagen, USA). Genomic DNA was eliminated during RNA purification using RNase-free DNase set (Qiagen, USA).
30 μg of the total RNA obtained above and 2 μg (1 μg/μl) of oligo (dT) primer were mixed, followed by reaction at 65° C. for 10 minutes. Annealing was performed in ice right after the reaction. Reagents were prepared as shown in Table 1 for reverse transcription of the annealed RNA.
The total RNA separated from the control group JEG-3 cells was labeled with Cy3-dUTP (green) and the total RNA separated from the experiment group JEG-3 cells treated with thalidomide, valproic acid and methotrexate was labeled with Cy5-dUTP (red). At this time, the two samples were mixed and purified by Microcon YM-30 column (Millipore, USA).
Hybridization and washing were performed by the manufacturer's (GenoCheck, Korea) instructions. Particularly, hybridization was performed in a 62° C. oven for 12 hours. As a DNA microarray chip, 44 k whole human genome oligo microarray (Agilent, USA) was used. After washing (2 minutes with 2×SSC/0.1% SDS, three minutes with 1×SSC, 2 minutes with 0.2×SSC), the slide was dried by centrifugation at 800 rpm for 3 minutes.
Hybridization image on the slide was scanned with Genepix 4000B (Axon Instruments, USA). Fluorescence image of the chip on which non-hybridized genes had been washed out was obtained by using laser fluorescence scanner. Green fluorescence image indicates the activity of gene specifically expressed in the control group and red fluorescence image indicates the activity of gene specifically expressed in the experimental group. […] Scanned image was analyzed by using GenePix 4.1 software (Axon Instruments, USA) to calculate gene expression rate.

[2] = tested on: JEG-3 (human placental choriocarcinoma cell line); assay: Real-time RT-PCR quantification of gene expression in drug-treated JEG-3; assay type: cell-based
Protocol: My IQ Real-Time PCR (Bio-Rad, USA) was performed to quantify the expressions of those genes.
Particularly, cDNA was synthesized using oligo dT primer and Superscript kit (Omniscipt™ kit, Qiagen, Co., USA) by reverse transcription. 0.2 μl of the cDNA, 3.8 μl of water, 0.5 μg of a sense primer, 0.5 μg of an antisense primer, and […] of SYBR Green I supermix (Bio-Rad, USA) were mixed, which was placed in a PCR tube, followed by real-time RT-PCR in My IQ real-time PCR machine as follows: Step 1: 95°, 3 minutes; Step 2 (45 cycles): Step 2-1: 95°, 10 seconds; Step 2-2: 55-65° 45 seconds; Step 3: 95°, 1 minute; Step 4: 55°, 1 minute; Step 5 (80 cycles): 55°, 10 seconds. SYBR green I (Bio-Rad, USA) staining was performed to quantify the PCR product. SYBR I staining is the staining method using double stranded DNA binding. So, the more double stranded DNA is generated during PCR, the stronger the fluorescence intensity becomes. First, target gene and endogenous control (GAPDH) primers were added to SYBR green master mix, followed by PCR. Then, primer optimization was performed to determine a proper concentration. Synthesized cDNA and each primer were mixed (Table 4), to which SYBR master mix was added, followed by PCR.

[3] = out of 21797 (thalidomide), 21921 (valproic acid), 24006 (methotrexate) genes
[4] = treated at IC30, up-regulated gene, (k) common gene which has no function

## O=C1CCC(N2C(=O)c3ccccc3C2=O)C(=O)N1 (stereo not shown) [THA, thalidomide]
[1]; GenBank AB002308
  cDNA microarray (Cy3/Cy5 ratio), KIAA0310: 1.94
[1]; GenBank AB018258
  cDNA microarray (Cy3/Cy5 ratio), ATP10B: 3.11
[1]; GenBank AB209845
  cDNA microarray (Cy3/Cy5 ratio), TTF2: 1.58
[1]; GenBank AF001893
  cDNA microarray (Cy3/Cy5 ratio), TncRNA: 1.5
[1]; GenBank AK001879
  cDNA microarray (Cy3/Cy5 ratio), C4orf19: 1.51
[1]; GenBank AK023571
  cDNA microarray (Cy3/Cy5 ratio), CYP19A1: 2.03
[1]; GenBank AK023574
  cDNA microarray (Cy3/Cy5 ratio), SLC40A1: 1.5
[1]; GenBank AK095632
  cDNA microarray (Cy3/Cy5 ratio), ABTB2: 1.78
[1]; GenBank AK122757
  cDNA microarray (Cy3/Cy5 ratio), TUBB3: 2.03
[1]; GenBank AK125877
  cDNA microarray (Cy3/Cy5 ratio), MGC27016: 1.51
[1]; GenBank AK126731
  cDNA microarray (Cy3/Cy5 ratio), GLCCI1: 1.56
[1]; GenBank BC036890
  cDNA microarray (Cy3/Cy5 ratio), TFCP2L4: 1.61
[1]; GenBank BC042755
  cDNA microarray (Cy3/Cy5 ratio), RGS2: 1.78
[1]; GenBank BC063830
  cDNA microarray (Cy3/Cy5 ratio), SIAT7A: 2.54
[1]; GenBank BX648021
  cDNA microarray (Cy3/Cy5 ratio), B7-H4: 0.52
[1]; GenBank BX649112
  cDNA microarray (Cy3/Cy5 ratio), COBLL1: 1.85
[1]; GenBank NM_000735
  cDNA microarray (Cy3/Cy5 ratio), CGA: 3.04
[1]; GenBank NM_001618
  cDNA microarray (Cy3/Cy5 ratio), PARP1: 0.66
[1]; GenBank NM_004155
  cDNA microarray (Cy3/Cy5 ratio), SERPINB9: 1.73
[1]; GenBank NM_005668
  cDNA microarray (Cy3/Cy5 ratio), ST8SIA4: 1.69
[1]; GenBank NM_007313
  cDNA microarray (Cy5 treated / Cy3 control ratio), ABL1: 0.65
[1]; GenBank NM_024342
  cDNA microarray (Cy3/Cy5 ratio), GRLF1: 0.55
[1]; GenBank NM_032484
  cDNA microarray (Cy3/Cy5 ratio), LGP1: 0.58
[1]; GenBank NM_181659
  cDNA microarray (Cy3/Cy5 ratio), NCOA3: 1.64
[1]; GenBank XM_031553
  cDNA microarray (Cy3/Cy5 ratio), SR140: 0.5
[1]; GenBank Y18483
  cDNA microarray (Cy3/Cy5 ratio), SLC7A8: 1.71
[1]; Genbank AK074614, drug at IC30
  Ratio of intermediate value, IGF2: 0.64
[1]; Genbank BI494022, NM_024342, drug at IC30
  Ratio of intermediate value, GRLF1: 0.55
[1]; Genbank BX648021, drug at IC30
  Ratio of intermediate value, B7-H4: 0.52
[1]; Genbank NM_001618, drug at IC30
  Ratio of intermediate value, PARP1: 0.66
[1]; Genbank NM_003873, drug at IC30
  Ratio of intermediate value, NRP1: 0.62
[1]; Genbank NM_004821, drug at IC30
  Ratio of intermediate value, HAND1: 0.61
[1]; Genbank NM_007313, drug at IC30
  Ratio of intermediate value, ABL1: 0.65
[1]; Genbank NM_032484, drug at IC30
  Ratio of intermediate value, LGP1: 0.58
[1]; Genbank XM_031553, drug at IC30
  Ratio of intermediate value, SR140: 0.50
[1]; JEG-3, drug at IC30, 48 hours
  genes down-regulated (ratio of intermediate value less than 0.666): 0.34%
  genes up-regulated (ratio of intermediate value more than 1.5): 0.95%
[1]; [3]
  number of genes down-regulated: 74
  number of genes up-regulated: 208
[1]; [4]
  Ratio of intermediate value, gene ATP10B (AB018258, ATPase, Class V, type 10B): 3.11
  Ratio of intermediate value, gene BQ186674 (cDNA clone UI-E-EJ1-ajr-f-10-0-UI, Hypothetical gene supported by AF086204): 1.60
  Ratio of intermediate value, gene BX111592 (Transcribed locus, moderately similar to XP_066443.6 PREDICTED: similar to paraneoplastic antigen like 6A): 2.17
  Ratio of intermediate value, gene CGA (NM_000735, Glycoprotein hormones, alpha polypeptide): 3.04
  Ratio of intermediate value, gene COBLL1 (BX649112, COBL-like 1): 1.85
  Ratio of intermediate value, gene CYP19A1 (AK023571, Cytochrome P450, family 19, subfamily A, polypeptide 1): 2.03
  Ratio of intermediate value, gene FLJ11017 (AK001879, Hypothetical protein FLJ11017): 1.51
  Ratio of intermediate value, gene GLCCI1 (AK126731, Glucocorticoid induced transcript 1): 1.56
  Ratio of intermediate value, gene KIAA0310 (AB002308, KIAA0310): 1.94
  Ratio of intermediate value, gene MGC27016 (AK125877, Hypothetical protein MGC27016): 1.51
  Ratio of intermediate value, gene NCOA3 (NM_181659, Nuclear receptor coactivator 3): 1.64
  Ratio of intermediate value, gene RGS2 (BC042755, Regulator of G-protein signalling 2, 24 kDa): 1.78
  Ratio of intermediate value, gene SIAT7A (BC063830, ST6 (alpha-N-acetyl-neuraminyl-2,3-beta-galactosyl-1,3)-N-acetylgalactosaminide alpha-2,6-sialyltransferase 1): 2.54
  Ratio of intermediate value, gene SIAT8D (NM_005668, ST8 alpha-N-acetyl-neuraminide alpha-2,8-sialyltransferase 4): 1.69
  Ratio of intermediate value, gene SLC7A8 (Y18483, Solute carrier family 7 (cationic amino acid transporter, y+ system), member 8): 1.71
  Ratio of intermediate value, gene SLC40A1 (AK023574, Solute carrier family 40 (iron-regulated transporter), member 1): 1.50
  Ratio of intermediate value, gene TFCP2L4 (BC036890, Grainyhead-like 3 (Drosophila)): 1.61
  Ratio of intermediate value, gene TTF2 (AB209845, Transcription termination factor, RNA polymerase II): 1.58
  Ratio of intermediate value, gene TUBB3 (AK122757, Tubulin, beta 3): 2.03
  Ratio of intermediate value, gene TncRNA (AF001893, Trophoblast-derived noncoding RNA): 1.50
[2]; GenBank AB002308
  Real time PCR (Relative ratio), KIAA0310: 4.78
[2]; GenBank AB018258
  Real time PCR (Relative ratio), ATP10B: 4.7689
[2]; GenBank AB209845
  Real time PCR (Relative ratio), TTF2: 1.6625
[2]; GenBank AF001893
  Real time PCR (Relative ratio), TncRNA: 5.9587
[2]; GenBank AK001879
  Real time PCR (Relative ratio), C4orf19: 1.6143
[2]; GenBank AK023571
  Real time PCR (Relative ratio), CYP19A1: 2.6408
[2]; GenBank AK023574
  Real time PCR (Relative ratio), SLC40A1: 2.1558
[2]; GenBank AK095632
  Real time PCR (Relative ratio), ABTB2: 1.4359
[2]; GenBank AK122757
  Real time PCR (Relative ratio), TUBB3: 2.8114
[2]; GenBank AK125877
  Real time PCR (Relative ratio), MGC27016: 2.3438
[2]; GenBank AK126731
  Real time PCR (Relative ratio), GLCCI1: 1.5509
[2]; GenBank BC036890
  Real time PCR (Relative ratio), TFCP2L4: 2.5111
[2]; GenBank BC042755
  Real time PCR (Relative ratio), RGS2: 3.4255
[2]; GenBank BC063830
  Real time PCR (Relative ratio), SIAT7A: 2.5019
[2]; GenBank BX648021
  Real time PCR (Relative ratio), B7-H4: 0.5
[2]; GenBank BX649112
  Real time PCR (Relative ratio), COBLL1: 1.5201
[2]; GenBank NM_000735
  Real time PCR (Relative ratio), CGA: 2.9963
[2]; GenBank NM_001618
  Real time PCR (Relative ratio), PARP1: 0.805
[2]; GenBank NM_004155
  Real time PCR (Relative ratio), SERPINB9: 2.2852
[2]; GenBank NM_005668
  Real time PCR (Relative ratio), ST8SIA4: 1.8635
[2]; GenBank NM_007313
  Real time PCR (Relative ratio), ABL1: 0.6781
[2]; GenBank NM_024342
  Real time PCR (Relative ratio), GRLF1: 0.689
[2]; GenBank NM_032484
  Real time PCR (Relative ratio), LGP1: 0.4867
[2]; GenBank NM_181659
  Real time PCR (Relative ratio), NCOA3: 2.9283
[2]; GenBank XM_031553
  Real time PCR (Relative ratio), SR140: 0.6423
[2]; GenBank Y18483
  Real time PCR (Relative ratio), SLC7A8: 1.6327
